# Laboratory results published in patent publication EP2265599B1, “CRYSTAL FORM OF PHENYLAMINOPYRIMIDINE DERIVATIVE” (Natco Pharma Limited, priority 2008, dated 2009).
# “Also recorded” adds a separate entry of the source. Counter-ions that a name gives are not always drawn.
# Tests used:
# [1] = Thermodynamic stability of the crystal forms at room temperature; format: physicochemical
# [2] = Heat stability of Form-III crystal form (heated in oil bath, examined by XRPD); format: physicochemical; settings: 6 hours, form-I and Form-II below the detection level
# Text: Pure Form-III crystal form (1 gm) prepared by the present process was placed in a boiling tube and heated gradually in oil bath. Then the substance was examined by XRPD.
# [3] = Stability of Form-III crystal form under accelerated stress conditions in bulk and formulated capsule; format: physicochemical
# Text: Table 5 - Stability of Form-III crystal form in bulk and formulated capsule
# [4] = system: K562 luciferase expressing cells; assay: Leukemic survival study, K562 luciferase expressing cells implanted intraperitoneally; format: in vivo, nude mice
# Description: K562 luciferase expressing cells were implanted intraperitoneally into nude mice; the mice were scanned using the xenogeny IVIS image station after ip injections of luciferin does determine implantations. Drug treatment was started as in previous studies day 15 after implantation. The animals were given treatment till day 42, after which drug treatment was stopped and survival of the animals determined as per the animal care regulations. […] Drug treatment was withdrawn on day 42 post implantation and survival of animals determined.
# [5] = system: K562 luc human leukemia cells; assay: Low dose oral treatment of nude mice implanted with K562 luc cells (luciferase expression); format: in vivo; settings: oral administration
# Description: Nude mice (nu/nu) were implanted with K562 cells (1x106) normal/luc via tail vein. Five mice were used per group and divided into 24 groups + 2 control. All groups were implanted with K562 normal/luc cells. Of the 24 groups, 12 were used for luciferase studies whereas the other 12 were used for blood smear count studies.
# Drugs were administered by oral gavage (2% gum acacia and 2% SLS in an aqueous suspension).
# [6] = system: 4910 human glioma xenograft cells; assay: Glioma radiation study, intracranially implanted 4910 cells; format: in vivo, Nude mice; settings: terminated at day 40
# Description: Nude mice were intracranially implanted with 4910 human glioma xenograft cells (1x10^6 cells). Ten days after implantation mice were treated with AN019, AN024 or temozolomide with or without radiation (5Gy/week). The experiment was terminated at day 40 post implantation.
structure (smiles),measurement,setting,value
"Cc1ccc(NC(=O)c2cc(C(F)(F)F)cc(C(F)(F)F)c2)cc1Nc1nccc(-c2cccnc2)n1 [Form-I, (3,5-bis trifluoromethyl)-N-[4-methyl-3-(4-pyridin-3yl-pyrimidin-2ylamino)-phenyl]-benzamide]",stability of crystal form at room temperature,[1],metastable at room temperature
"Cc1ccc(NC(=O)c2cc(C(F)(F)F)cc(C(F)(F)F)c2)cc1Nc1nccc(-c2cccnc2)n1 [Form-II, (3,5-bis trifluoromethyl)-N-[4-methyl-3-(4-pyridin-3yl-pyrimidin-2ylamino)-phenyl]-benzamide]",stability of crystal form at room temperature,[1],metastable at room temperature
"Cc1ccc(NC(=O)c2cc(C(F)(F)F)cc(C(F)(F)F)c2)cc1Nc1nccc(-c2cccnc2)n1 [Form-III, (3,5-bis trifluoromethyl)-N-[4-methyl-3-(4-pyridin-3yl-pyrimidin-2ylamino)-phenyl]-benzamide]",Polymorph form detected after heating,[2]; 110°C,Form-III
same,Polymorph form detected after heating,[2]; 120°C,Form-III
same,Polymorph form detected after heating,[2]; 130°C,non-metastable and stable when heated at 130 °C for 6 hours; also recorded: stable to heat even at 130 °C for 6 hours; also recorded: Form-III
same,stability of crystal form at room temperature,[1],thermodynamically stable form at room temperature
same,"Polymorph content of bulk compound of formula I, Polymorph form detected",[3]; 0 Month at 40±2°C / 75 ±5% RH,Form-III
same,"Polymorph content of bulk compound of formula I, Polymorph form detected",[3]; 1 Month at 40±2°C / 75 ±5% RH,Form-III
same,"Polymorph content of bulk compound of formula I, Polymorph form detected",[3]; 2 Months at 40±2°C / 75 ±5% RH,Form-III
same,"Polymorph content of bulk compound of formula I, Polymorph form detected",[3]; 3 Months at 40±2°C / 75 ±5% RH,Form-III
same,"Polymorph content of bulk compound of formula I, Polymorph form detected",[3]; 6 Months at 40±2°C / 75 ±5% RH,Form-III
same,"Polymorph content of Formula I in formulated capsule, Polymorph form detected",[3]; 0 Month at 40±2°C / 75 ±5% RH,Form-III
same,"Polymorph content of Formula I in formulated capsule, Polymorph form detected",[3]; 1 Month at 40±2°C / 75 ±5% RH,Form-III
same,"Polymorph content of Formula I in formulated capsule, Polymorph form detected",[3]; 2 Months at 40±2°C / 75 ±5% RH,Form-III
same,"Polymorph content of Formula I in formulated capsule, Polymorph form detected",[3]; 3 Months at 40±2°C / 75 ±5% RH,Form-III
same,"Polymorph content of Formula I in formulated capsule, Polymorph form detected",[3]; 6 Months at 40±2°C / 75 ±5% RH,Form-III
"Cc1ccc(NC(=O)c2ccc(CN3CCN(C)CC3)cc2)cc1Nc1nccc(-c2cccnc2)n1 [Imatinib, Imatinib mesylate, reference compound]",leukemic symptoms after treatment withdrawal,[4]; drug treatment withdrawn on day 42,showed reoccurrences of leukemic symptoms after treatment withdrawal
same,Blast cell count from blood smears after withdrawal of drug treatment,[4]; drug treatment withdrawn on day 42 (Fig. 21),found to be ineffective
same,mortality,"[4]; treatment from day 15 till day 42, then withdrawn, AN024 death determined to be other than leukemia","showed mortality on day 55, 56, 57 and 58"
same,luciferase expression,[5]; 10mg/kg,did show a retardation of luciferase expression
same,luciferase expression,[5]; 20mg/kg,did show a retardation of luciferase expression
"Cn1nnc2c(C(N)=O)ncn2c1=O [Temozolomide, reference compound]",animals cured / no observable intracranial tumor,[6]; with radiation (5Gy/week),2 of 10 animals
same,animals cured / complete absence of intracranial tumours,"[6]; without radiation, treatment from ten days after implantation",3 of 10 animals
